According to article PMC4067310, “From Pan-Reactive KV7 Channel Opener to Subtype Selective Opener/Inhibitor by Addition of a Methyl Group” (PLoS ONE, 2014):

Assays:
KV7.4-W242L = biological target: T1, KV7.4-W242L (Homo sapiens, UniProt P56696, W242L); assay: Two-electrode voltage-clamp of mutant KV7.4-W242L in Xenopus laevis oocytes; format: cell-based
T1 construct: expressed in transfected cells; host or cells: Xenopus laevis oocytes injected with cRNA (pGEM-HE vector)
T1 sequence (P56696 1-695 W242L): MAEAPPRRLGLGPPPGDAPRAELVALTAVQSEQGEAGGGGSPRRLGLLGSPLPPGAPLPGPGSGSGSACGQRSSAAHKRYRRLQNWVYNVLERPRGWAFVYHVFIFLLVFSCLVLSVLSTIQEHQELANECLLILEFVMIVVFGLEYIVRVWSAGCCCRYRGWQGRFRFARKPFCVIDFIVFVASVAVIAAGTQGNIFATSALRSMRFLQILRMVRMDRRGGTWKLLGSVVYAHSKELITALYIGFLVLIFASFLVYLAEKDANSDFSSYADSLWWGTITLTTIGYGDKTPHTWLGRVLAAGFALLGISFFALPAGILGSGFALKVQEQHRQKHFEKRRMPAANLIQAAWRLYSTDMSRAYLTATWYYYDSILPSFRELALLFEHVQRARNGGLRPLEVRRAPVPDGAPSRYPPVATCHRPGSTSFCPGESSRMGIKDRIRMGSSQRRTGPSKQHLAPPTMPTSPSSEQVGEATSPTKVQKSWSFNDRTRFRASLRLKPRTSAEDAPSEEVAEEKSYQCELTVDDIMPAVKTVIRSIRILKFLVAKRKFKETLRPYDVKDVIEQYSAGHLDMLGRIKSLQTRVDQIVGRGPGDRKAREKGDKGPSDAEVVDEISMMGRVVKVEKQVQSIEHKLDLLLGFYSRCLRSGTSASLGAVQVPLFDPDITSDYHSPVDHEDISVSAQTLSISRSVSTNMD
Protocol: (§1) Point mutations were introduced using mutated oligonucleotide extension (PfuTurbo Polymerase, Stratagene, La Jolla, CA, USA) from a plasmid template harboring the cDNA of interest, digested with DpnI (Fermentas, St. Leon-Roth, Germany) and transformed into E.coli XL1 Blue cells. The construct was verified by complete DNA sequencing of the cDNA insert. cRNA was prepared from linearized human wild-type (WT) and mutant KV7 channels in the pGEM-HE vector using the T7 m-Message Machine kit (Ambion, Austin, TX, USA) according to the manufacturer's instructions.
Extraction of Xenopus laevis oocytes and injection of cRNA was performed as described previously. Oocytes were kept in Modified Barth's Saline (in mM: 88 NaCl, 1 KCl, 2.4 NaHCO3, 0.41 CaCl2, 0.82 MgSO4, 0.3 Ca(NO3)2, 15 HEPES, pH 7.4 supplemented with 100 U/mL penicillin and 100 µg/mL streptomycin) at 18°C, and currents were recorded after 2-7 days. The care of Xenopus laevis and the oocyte extraction procedure were performed according to national guidelines and approved by the Danish Animal Experiments Inspectorate.
KV7 currents in Xenopus laevis oocytes were recorded using two-electrode voltage-clamp at room temperature in Ringer buffer (in mM: 115 NaCl, 2.5 KCl, 1.8 CaCl2, 0.1 MgCl2, 10 HEPES, pH 7.4) as described previously. Data was acquired using pCLAMP 10.2 software (Molecular Devices, CA, USA) and analyzed using pCLAMP 10.2 and GraphPad Prism 4.0 (GraphPad Software Inc., CA, USA). Currents were elicited from a holding potential of −80 mV by 5 s steps to potentials between −100 and +50 mV in 10 mV increments, followed by a 2 s step to −120 mV.
SMB-1 was dissolved in dimethyl sulfoxide (DMSO) to obtain a concentrated stock solution. […]
Current – voltage (I–V) relationship curves were generated by normalizing the steady-state peak current measured at potentials between −100 and +50 mV to the current measured at +50 mV in control recordings and plotting the values against the test potential.
The voltage-dependence of activation was determined from tail current analysis using the current measured immediately after the transient capacitive current after stepping to −120 mV from potentials between −100 mV and +50 mV. […] A V0.5 was calculated for each individual experiment and statistical significance was estimated by paired two-tailed Student's t-test.
Activation kinetics for KV7.4 and KV7.4-W242L was determined by fitting the traces recorded at potentials between −30 and +50 mV to a single exponential function: [drawing 3] […]
For investigation of deactivation kinetics the tail current traces recorded at −120 mV when stepping from the channels' respective ∼V0.5 were fitted to a single exponential function (Eq. 3).

KV7.2-L275V = biological target: T2, KV7.2-L275V (Homo sapiens, UniProt O43526, L275V); assay: Two-electrode voltage-clamp of mutant KV7.2-L275V in Xenopus laevis oocytes; format: cell-based; settings: 10 µM SMB-1, +50 mV, n = 4; read-out: current amplitude, % of control
T2 construct: expressed in transfected cells; host or cells: Xenopus laevis oocytes injected with cRNA (pGEM-HE vector)
Protocol: as §1
Extraction of Xenopus laevis oocytes and injection of cRNA was performed as described previously. Oocytes were kept in Modified Barth's Saline (in mM: 88 NaCl, 1 KCl, 2.4 NaHCO3, 0.41 CaCl2, 0.82 MgSO4, 0.3 Ca(NO3)2, 15 HEPES, pH 7.4 supplemented with 100 U/mL penicillin and 100 µg/mL streptomycin) at 18°C, and currents were recorded after 2-7 days. […]
KV7 currents in Xenopus laevis oocytes were recorded using two-electrode voltage-clamp at room temperature in Ringer buffer (in mM: 115 NaCl, 2.5 KCl, 1.8 CaCl2, 0.1 MgCl2, 10 HEPES, pH 7.4) as described previously. Data was acquired using pCLAMP 10.2 software (Molecular Devices, CA, USA) and analyzed using pCLAMP 10.2 and GraphPad Prism 4.0 (GraphPad Software Inc., CA, USA). […]

[1] = Visual inspection of solution in Ringer buffer for precipitation; format: physicochemical
Protocol: SMB-1 was dissolved in dimethyl sulfoxide (DMSO) to obtain a concentrated stock solution. On the day of experiments the stock solution was thawed and diluted in Ringer buffer to the final concentrations. A concentration of 10 µM SMB-1 was used unless indicated otherwise. The final DMSO concentration never exceeded 0.1%.
To determine the potency of SMB-1 on KV7.2 the compound was tested at four concentrations (0.4, 2, 10 and 50 µM). […] The current amplitude in percentage of control at +50 mV was plotted against the logarithm of the concentration.

T2 sequence (O43526 whole entry L275V): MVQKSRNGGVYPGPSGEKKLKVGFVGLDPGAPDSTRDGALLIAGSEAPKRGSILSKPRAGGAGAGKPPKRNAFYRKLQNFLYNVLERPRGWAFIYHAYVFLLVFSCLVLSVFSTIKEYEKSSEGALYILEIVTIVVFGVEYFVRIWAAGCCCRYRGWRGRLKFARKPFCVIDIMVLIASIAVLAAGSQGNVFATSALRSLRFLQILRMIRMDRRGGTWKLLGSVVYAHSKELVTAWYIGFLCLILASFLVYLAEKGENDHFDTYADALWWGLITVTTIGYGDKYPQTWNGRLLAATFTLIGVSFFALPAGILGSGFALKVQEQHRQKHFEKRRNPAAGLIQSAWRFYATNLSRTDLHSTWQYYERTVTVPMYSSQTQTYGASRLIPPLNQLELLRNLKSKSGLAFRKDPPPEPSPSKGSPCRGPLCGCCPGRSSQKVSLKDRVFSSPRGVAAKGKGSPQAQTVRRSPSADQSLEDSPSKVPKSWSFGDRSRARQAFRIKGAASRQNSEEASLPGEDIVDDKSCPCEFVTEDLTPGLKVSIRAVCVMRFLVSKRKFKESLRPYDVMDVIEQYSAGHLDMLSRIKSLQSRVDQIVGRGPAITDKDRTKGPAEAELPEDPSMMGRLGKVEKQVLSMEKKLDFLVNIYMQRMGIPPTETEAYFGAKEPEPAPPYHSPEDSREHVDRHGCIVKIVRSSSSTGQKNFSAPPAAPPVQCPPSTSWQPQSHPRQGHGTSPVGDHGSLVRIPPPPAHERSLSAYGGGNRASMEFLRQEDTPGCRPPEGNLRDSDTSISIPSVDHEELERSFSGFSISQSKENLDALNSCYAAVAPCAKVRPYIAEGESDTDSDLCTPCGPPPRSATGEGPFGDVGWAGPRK

C[C@@H](c1ccc2c(c1)N(CC1CC1)CCO2)N(C)C(=O)/C=C/c1ccccc1F [SMB-1, (E)-N-[(S)-1-(4-Cyclopropylmethyl-3,4-dihydro-2H-1,4-benzoxazin-6-yl)-ethyl]-3-(2-fluoro-phenyl)-N-methyl-acrylamide]
effect on activation kinetics (KV7.4-W242L; 10 µM): neither any significant effect | remaining activity at 10 µM (KV7.4-W242L; 10 µM SMB-1, +50 mV, n = 5, read-out: current amplitude, % of control): 74.8 ± 4.2% | V0.5, voltage-dependence of activation in presence of compound (KV7.4-W242L; 10 µM, control 5.5±4.5 mV, n = 5, p = 0.2): 4.3±4.9 mV | τdeact, deactivation time constant in presence of compound (KV7.4-W242L; 10 µM, control 12.5±2.2 ms, n = 5, p = 0.5): 12.3 ± 2.2 ms | remaining activity at 10 µM (KV7.2-L275V): 90.4 ± 4.1% | concentration above which the drug precipitated [1]: above 50 µM
